Assay results as given in paper PMC7728344, “Pharmacokinetic Characterization of (Poly)phenolic Metabolites in Human Plasma and Urine after Acute and Short-Term Daily Consumption of Mango Pulp” (Molecules, 2020).
Like-named read-outs stand apart in the source and are kept apart here.

Key:
[1] = Concentration of (poly)phenolic metabolites in fasting urine at baseline, 24 h after single MP beverage and 15th day after 14-day MP intake (UHPLC-QQQ-MS); conditions: human, urine, oral
Source text: The acute trial was a randomized, 3 arm, within-subject crossover study design (Figure 5A). The trial initiated with 3 days of food record collection to assess background (pre-study) dietary intake followed by counseling to adhere to a diet devoid of mango or its parts and relatively low in polyphenol-rich beverages/foods, which was maintained throughout the duration of the trial. […] In general, subjects were encouraged to follow their “usual” diet with the exception of foods/beverages that may interfere with the outcomes of the study. Food intake diaries and, phone call and email reminders helped subjects maintain compliance throughout the study period. After an initial 7-day run-in period on the limited polyphenol diet, subjects were assigned to a randomization sequence providing 1 of 3 study test beverages (recipes provided in Appendix A, Table A3) on three separate days in a random order: MP (500 g), MP (500 g) + VC (100 mg) or VC (100 mg) beverages. On each study day subjects arrived fasted and well hydrated. After standard admission procedures were completed (e.g., review of compliance with dietary requirements for 3 days prior to study day, dinner meal intake, usual sleep patterns), a catheter was placed by a registered nurse in subjects’ non-dominant arm and a fasting/baseline blood sample was collected (0 h). Subjects were provided with a standard breakfast meal 2 h after the study beverages. The breakfast meal was comprised of a buttermilk biscuit with butter and jelly, and scrambled egg white with shredded white cheddar cheese. After the 6 h blood collection, subjects ate a low polyphenol lunch consisting of dry roasted peanuts and fresh peeled cucumber with ranch dressing (Appendix A, Table A3).
Spot urine samples were collected in urine collection cups, immediately placed on ice and then aliquoted into individual cryovials. All the samples were stored at −80 °C until analysis.
A 14-day feeding trial was conducted with the MP only to study the effect of repetitive intake of MP on (poly)phenolic metabolite profiles. Upon completion of the acute trial, subjects were instructed to continue on the low polyphenolic diet for 2 weeks while consuming MP beverages (provided by CNRC) daily in the morning (250 g MP + 50 g water) and evening (250 g MP + 50 g water). On day 14, subjects consumed both beverages (500 g of MP in total) in the morning and reported to the CNRC on the 15th day after an overnight fast to provide a fasting blood and urine sample (Figure 5B). Blood and urine samples were collected as described above and stored at −80 °C until analysis.
The supernatant was collected and filtered through 0.2 µm polypropylene syringe filter before HPLC analysis.
The ESI conditions were the same as those used in the UHPLC-Q-TOF analysis. The quantification of the compounds was conducted by multiple-reaction monitoring (MRM) transitions. Spectra were recorded in both positive- and negative-ion mode with capillary voltage of 4500 V and drying gas flow rate of 9 L/min at 200 °C. The sheath gas temperature and flow rate were 300 °C and 11 L/min, respectively. Standards were optimized for collision energies, fragmentor voltages and MRM transitions using Mass Hunter Optimizer. The MRM transition for metabolites were created based on the results from UHPLC-Q-TOF-MS. Standards for plasma analysis were prepared in blank plasma (charcoal-stripped human plasma obtained from Bioreclamation IVT) for matrix match and for urine analysis were prepared in SMP.
The flow rate was maintained at 0.4 mL/min and the injection volume was 5 μL. The mobile phase consisted of acidified water (0.1% formic acid) (A) and acidified acetonitrile (0.1% formic acid) (B). The gradient for the separation of compounds was as follows: 5 to 5% B from 0 to 1 min; 10% B at 3 min; 15% B at 7 min; 15% B at 9 min; 20% B at 10 min; 20% B at 11 min; 25% B at 12 min; 30% B at 13 min; 30% B at 14 min; 95% B at 15 min; and back to 5% B at 16 min.

[2] = clinical; assay type: in vivo, human; conditions: for AUC(0-t) / Tmax / Cmax: oral, human plasma, mean ± standard error; for AUC(0-t): read-out: AUC0–24h; for Tmax: read-out: Tmax; for Cmax: 0−24 h, read-out: Cmax
Method: SPE procedure was conducted to extract and concentrate the (poly)phenolic compounds and their metabolites from the plasma samples. Briefly, plasma samples were thawed on ice and 500 µL plasma was diluted with 1.5 mL of 0.1% formic acid in water with addition of internal standards (2-methylhippuric acid (2 ng/mL), phloridizin (1 ng/mL)) before being loaded on preconditioned SPE cartridges. The cartridges were washed with 0.1% formic acid in water (1 mL) after loading with plasma samples. The elution of the compounds was achieved by 0.1% formic acid in methanol (1 mL) and the eluent was dried under nitrogen gas at room temperature. […] Supernatant was collected in amber HPLC vials before analysis.
The absorption and elimination of 11 major mango metabolites over 24 h was determined after MP, MP + VC, and VC intake. The plasma concentration/area at each time point was determined by the mean of 13 subjects. The time vs. concentration curves and the time vs. area curves were created using GraphPad Prism (version 8.2.1). […] Tmax is the time (h) when Cmax was achieved. Wilcoxon signed-rank test was used for Tmax analysis due to non-normal distribution. Area under the plasma concentration time curve (AUC0−24h, nmol·h/L) was calculated by the linear trapezoidal method using Microsoft Excel 2013, version 15 [63]. […]

For O=C(O)c1cc(O)c(O)c(O)c1 [Compound C1, gallic acid], the concentration at 15 day [1] was 100 nM, the concentration at 0 h ([1]; 500 g) was 200 nM and the concentration at 24 h ([1]; 500 g) was 200 nM. For the same compound, the “time within which absorbed” value ([2]; after acute mango intake) was 1 to 2 h, the “difference in plasma concentrations/areas after MP + VC beverage compared to MP beverage alone” value ([2]; increase observed, statistical outcome) was “not statistically significant” and the AUC(0-t) ([2]; 100 mg, after VC beverage) was 0.0249 ± 0.0019 µM·h. For the same compound, the AUC(0-t) ([2]; 500 g, after MP beverage, linear trapezoidal method) was 0.0645 ± 0.0078 µM·h, the Tmax ([2]; 500 g, after MP beverage) was 2.2 ± 0.4 h and the Cmax ([2]; after MP (mango pulp 500 g) beverage, n = 13) was 20.4 ± 3.1 nM. It also gave a Cmax ([2]; after MP + VC (mango pulp 500 g + vitamin C 100 mg) beverage) of 21.1 ± 3.9 nM, a Cmax ([2]; after VC (vitamin C 100 mg) beverage) of 5.3 ± 1.3 nM and an AUC(0-t) ([2]; after MP + VC beverage) of 0.0628 ± 0.0069 µM·h. For the same compound, the Tmax ([2]; after MP + VC beverage) was 2 ± 0.3 h.
